Source: patent EP2462919A2, “Synergistic active agent combination for protecting the skin from IR radiation” (priority 2010, dated 2012)

Key:
Type in all cases: cell-based
Kollagenase MMP-1 = assay: Gene expression of ageing marker MMP-1 in cultured monolayer fibroblasts after substance treatment and infrared irradiation; conditions: for Expression der Kollagenase MMP-1 (result in words): Fibroblasten, Infrarot-Strahlen 760-1400 nm, after treatment
From the text: (§1) 1. In vitro Assays hinsichtlich der Expression typischer Altersmarker in kultivierten Fibroblasten nach Substanzgabe und Infrarotbestrahlung
(§2) Methode: Monolayer-Fibroblasten wurden 24 Stunden vor und 24 Stunden nach Infrarot-Bestrahlung mit Lipochroman (Dimethylmethoxy Chromanol, 0,005 Gew.-%), Taurin (2-Aminoethansulfonsäure 0,005 Gew.-%) und Kombinationen beider Substanzen behandelt. Im Folgenden wurde die Genexpression der zwei Hautalterungsmarker Kollagenase MMP-1, das hinsichtlich der Hautalterung wichtigste Kollagen abbauende Enzym, und des spezifischen Inhibitors der Kollagenase MMP-1, TIMP-1 (tissue inhibitor of metalloproteinase 1), untersucht. Die Genexpressionswerte wurden im Folgenden auf die Werte der jeweiligen unbehandelten Kontrolle relativiert. Als Kontrollen wurden Fibroblasten analysiert, die ausschließlich mit Infrarot bestrahlt wurden.

MMP1 / TIMP-1 = assay: MMP-1 / TIMP-1 expression ratio (collagen build-up/degradation balance) in fibroblasts after substance treatment and infrared irradiation; conditions: Monolayer-Fibroblasten, mit Infrarot A bestrahlt, irradiated-only control 1,2
From the text: as §1
[…] Im Folgenden wurde die Genexpression der zwei Hautalterungsmarker Kollagenase MMP-1, das hinsichtlich der Hautalterung wichtigste Kollagen abbauende Enzym, und des spezifischen Inhibitors der Kollagenase MMP-1, TIMP-1 (tissue inhibitor of metalloproteinase 1), untersucht. Die Genexpressionswerte wurden im Folgenden auf die Werte der jeweiligen unbehandelten Kontrolle relativiert. Als Kontrollen wurden Fibroblasten analysiert, die ausschließlich mit Infrarot bestrahlt wurden.
Entscheidend für die Balance des Auf- und Abbaus von Kollagen in der Dermis ist das Verhältnis zwischen MMP-1 und TIMP-1. Ist dieses Verhältnis größer als der Vergleichswert, so kann von einem vermehrten Abbau durch die Kollagenase ausgegangen werden, ist das Verhältnis kleiner, so wird der Abbau vermehrt verhindert und neues Kollagen kann synthetisiert werden.

[1] = test system: TIMP-1 (tissue inhibitor of metalloproteinase 1); assay: Gene expression of ageing marker TIMP-1 in cultured monolayer fibroblasts after substance treatment and infrared irradiation; conditions: for Expression von TIMP-1 (result in words): Fibroblasten, Bestrahlung mit Infrarot-Strahlen, after treatment
From the text: as §1, §2

| SMILES | fold induction at 0.005 % (Kollagenase MMP-1; Fibroblast, light or radiation study, Monolayer-Fibroblasten, mit Infrarot A bestrahlt, 0,005 % Lipochroman-6, treated 24 h before and 24 h after irradiation, read-out: MMP-1 Regulierung mRNA (Gene Expression versus Sham control)) | Expression der Kollagenase MMP-1 (result in words) (Kollagenase MMP-1) | MMP1 / TIMP-1 Ratio (MMP1 / TIMP-1; 0,005 % Lipochroman-6) | fold induction at 0.005 % ([1]; Fibroblast, light or radiation study, Monolayer-Fibroblasten, mit Infrarot A bestrahlt, 0,005 % Lipochroman-6, treated 24 h before and 24 h after irradiation, read-out: TIMP-1 Regulierung mRNA (Gene Expression versus Sham control)) | Expression von TIMP-1 (result in words) [1] | fold induction at 0.05 % (Kollagenase MMP-1; Fibroblast, light or radiation study, Monolayer-Fibroblasten, mit Infrarot A bestrahlt, 0,05 % Taurin, treated 24 h before and 24 h after irradiation, read-out: MMP-1 Regulierung mRNA (Gene Expression versus Sham control)) | MMP1 / TIMP-1 Ratio (MMP1 / TIMP-1; 0,05 % Taurin) | fold induction at 0.05 % ([1]; Fibroblast, light or radiation study, Monolayer-Fibroblasten, mit Infrarot A bestrahlt, 0,05 % Taurin, treated 24 h before and 24 h after irradiation, read-out: TIMP-1 Regulierung mRNA (Gene Expression versus Sham control)) |
| --- | --- | --- | --- | --- | --- | --- | --- | --- |
| COc1cc2c(cc1O)CCC(C)(C)O2 [Lipochroman-6, 3,4-Dihydro-7-methoxy-2,2-dimethyl-2H-2 1-benzopyran-6-ol] | 1.75 | erhöhten Expressionswerten | 2,7 | 1.65 | starken Expressionssteigerung |  |  |  |
| NCCS(=O)(=O)O [Taurin, 2-Aminoethansulfonsäure] |  | erhöhten Expressionswerten |  |  | leichten Steigerung der Expression | 2.05 | 1,6 | 1.1 |
